# Measurements taken from patent US7022520B2, “Cell culture media for mammalian cells” (University of Pittsburgh, priority 1996, dated 2006).
# B1: KGF: keratinocyte growth factor (protein, UniProt P21781 32-194, looked up)
# Fibroblast growth factor 7: CNDMTPEQMATNVNCSSPERHTRSYDYMEGGDIRVRRLFCRTQWYLRIDKRGKVKGTQEMKNNYNIMEIRTVAVGIVAIKGVESEFYLAMNKEGKLYAKKECNEDCNFKELILENHYNTYASAKWTHNGGEMFVALNQKGIPVRGKKTKKEQKTAHFLPMAIT
# Tests used:
# rat hepatocytes [1] = test: Hepatocyte proliferation in HBM supplemented with growth factors (total DNA per culture, thymidine uptake, BRdU labeling); assay type: cell-based; conditions: FIG. 2; for cell proliferation, total amount of DNA per culture at day 15: growth factor added individually to HBM medium
# Source text: Rat hepatocytes were isolated by an adaptation of the calcium two step collagenase perfusion technique as taught by Kost, D. P., et al, J. Cell. Physiol. 147:274 (1991), the disclosure of which is incorporated herein by reference. All such preparations were designed to obtain a population of pure hepatocytes. […] After isolation of hepatocytes, the cells were suspended in a media used for cell attachment to the culture plates. This media was MEM (GIBCO 12570) with NEAA (GIBCO 11140), insulin 5 mg/L, and gentamycin 5 μg/ml. Hepatocytes were plated on a single layer of collagen coating as described below and left to attach for 2 hours. Six-well cluster plates (9.8 square centimeters […]) from Corning were used. For experiments where hepatocytes were not going to be induced to proliferate, or where assessments of differentiated function were performed, the cells were plated at a density of 80,000 hepatocytes per square centimeter of surface area. For experiments intended to induce proliferation or genetic transduction with foreign DNA, cells were plated at an initial density of 1,000 or 10,000 hepatocytes per square centimeter of surface area. The plating medium was replaced with the invention HBM medium at 2 hours after the cells were plated and every 48 hours thereafter. Thymidine, growth factors, and other ingredients, were added at the time of medium change as required.
# (§1) DNA synthesis was measured by the uptake of tritiated thymidine into trichloroacetic acid (TCA) precipitable material as described by Kost, D. P., et al. (1991), cited above. Collagen gels, where necessary, were digested with 2 mg of collagenase per ml of MEM medium used. Incubation was then carried out for 30 minutes at 37° C. The digested gels were treated with NaOH followed by TCA to precipitate DNA, RNA, and proteins as described by Kost, D. P., et al. (1991), cited above.
# FIGS. 1A and 1B show the uptake of thymidine per μg DNA, as well as the BRdU nuclear labeling index at different days in culture in cells growing in the presence of HGF/SF and EGF (40, 20 ng/ml respectively) as described above. […] By day 15 the cultures were confluent and DNA synthesis slowed down.
# The growth factors HGF/SF, EGF, TGFα, KGF (keratinocyte growth factor), SCF (stem cell factor), and aFGF (acidic fibroblast growth factor) were added individually to HBM medium. […] The total DNA per culture is shown as a function of the time in culture. […] The DNA per culture at day 15 was 12 times that at time 0, reflecting the increase in cell number. […] TGFα alone was more mitogenic than either HGF/SF or EGF alone.
# rat hepatocytes [2] = test: Effect of matrix substrates on hepatocyte growth (total DNA per culture at day 15); assay type: cell-based; conditions: dry coating of plates; HBM with HGF/SF 40 ng/ml and EGF 20 ng/ml; FIG. 3
# Procedure: (§2) Collagen gels were prepared as described by Michalopoulos, G. K., et al., Exp. Cell. Res. 94:70 (1975), the disclosure of which is incorporated herein by reference. Dry coating of plates with collagen and Matrigel was also performed as specified by the manufacturer. Matrigel gels were made by adding 50 μl of Matrigel solution into 0.5 ml of medium directly on the top of attached cells.
# Several matrix substrates promoted cell growth in this system. […] The cells were cultured as described above. […] Coating with type I collagen (Vitrogen commercial preparation) was the standard method used for the experiments unless otherwise specified. The effect of matrix gels in promoting specific phenotypic conversions in these cultures is further discussed below.
# hepatocytes = test: Hepatocytes between two type I collagen gel layers in HBM: ductular/acinar structures and proliferation; assay type: cell-based, rat; conditions: for phenotype of hepatocytes between two collagen gel layers: HBM supplemented with the growth factor, 15 day cultures
# Procedure: as §2
# Hepatocytes maintained between two collagen gel layers retain their morphology and differentiation for prolonged time periods as described by Michalopoulos, G. K., et al., J. Cell. Physiol. 156:443 (1993), the disclosure of which is incorporated herein by reference. Hepatocytes maintained in collagen gel sandwiches in cultures with convential media containing HGF/SF undergo intense proliferation, form prominent projections, and eventually become organized in structures reminiscent of the hepatic plates. The behavior of hepatocytes maintained between two layers of collagen gel as previously described was examined, but in the presence of HBM supplemented with either HGF/SF or EGF as described above. […] These became prominent and encompassed most of the cells present in the cultures. Starting from approximately day 10 and by day 15 most of the cells in the culture were arranged in such ductular structures. Histologic sections are shown in FIG. 7B (light microscopy) and FIGS. 7C and 7D (electron microscopy). […] Some of the cells surrounding these structures were very attenuated and had light and electron microscopic appearance identical to bile duct epithelium. Others however are larger and resemble more closely the ductular hepatocytes described in previous studies of in vivo models. The proliferation of cells (data not shown) under either EGF or HGF/SF in the collagen gel sandwiches was much less (<25% at the highest peak) than that seen in the cultures on plastic coated with dry collagen. Most proliferation ceased by day 10 and the duct-like structures appeared after cell proliferation had ceased (days 10–15). […]
# [3] = system: proliferating hepatocytes; test: Matrigel overlay: reversion of proliferating hepatocytes to mature hepatocyte morphology; assay type: cell-based, rat; conditions: Matrigel overlay with 20 mM hydroxyurea
# Procedure: To assess whether differentiation to mature hepatocyte morphology required DNA synthesis, 20 mM hydroxurea was added to the HBM media. […] Hydroxyurea was added to cultures before the Madrigel overlay and maintained throughout the next 5-day period.
# [4] = system: proliferating hepatocytes; test: DNA synthesis in hepatocyte cultures (tritiated thymidine uptake); assay type: cell-based, rat; conditions: for DNA synthesis: 20 mM, 5-day period
# Procedure: as §1
# To assess whether differentiation to mature hepatocyte morphology required DNA synthesis, 20 mM hydroxurea was added to the HBM media. This has been shown (Michalopoulos, G. K., et al., Cancer Res. 38:1866 (1978), the disclosure of which is incorporated herein by reference) to abolish scheduled semiconservative DNA synthesis in hepatocytes by inhibiting ribonucleotide reductase. Hydroxyurea was added to cultures before the Madrigel overlay and maintained throughout the next 5-day period.
# Hepatocytes maintained between two collagen gel layers retain their morphology and differentiation for prolonged time periods as described by Michalopoulos, G. K., et al., J. Cell. Physiol. 156:443 (1993), the disclosure of which is incorporated herein by reference. Hepatocytes maintained in collagen gel sandwiches in cultures with convential media containing HGF/SF undergo intense proliferation, form prominent projections, and eventually become organized in structures reminiscent of the hepatic plates. The behavior of hepatocytes maintained between two layers of collagen gel as previously described was examined, but in the presence of HBM supplemented with either HGF/SF or EGF as described above. […] These became prominent and encompassed most of the cells present in the cultures. Starting from approximately day 10 and by day 15 most of the cells in the culture were arranged in such ductular structures. Histologic sections are shown in FIG. 7B (light microscopy) and FIGS. 7C and 7D (electron microscopy). […]
# [5] = system: cytochrome P450 IIB1 mRNA; test: Northern blot of cytochrome IIB1 mRNA induction; conditions: PB added at day 10 of culture, harvest at day 15; with or without Matrigel at day 8; FIG. 6E
# Procedure: Extraction of Total RNA and mRNA from Cultures. Total RNA was extracted from unwashed cell cultures using 2.0 ml of RNAzol B (BioTec) per well and purified per the manufacturer's guidelines. RNA concentration and purity were determined by routine spectrophotometry. Size separation of 20 μg RNA per lane was completed on denaturing it agarose gels and transferred to nylon membranes (Amersham, Arlington Heights, Ill.) by the capillary method. After cross-linking under UV light, the membranes were hybridized overnight with specific cDNAs (as indicated in the figures) that had been labeled with [α-^32P]dCTP using an Amersham random primer kit. Membranes were subsequently washed under high stringency conditions and exposed to XAR film (Eastman Kodak, Rochester, N.Y.) for 1–3 days. Quantification of the RNA hybridization bands were performed by laser densitometry.
# The effect of Phenobarbitol (PB) on the levels of cytochrome P450 IIB1 mRNA in the Matrigel-treated cultures was also measured as shown in FIG. 6E. Matrigel was added to the cultures at day 8. PB was added 2 days later (day 10 of culture). The cells were harvested 5 days after addition of PB (day 15 in culture).
molecule,measurement,setting,value
TGFα: transforming growth factor a,proliferative effect compared with the other mitogens,"rat hepatocytes [1]; HBM medium, 15 days",stronger proliferative effect than any of the other mitogens when added alone
same,"cell proliferation, total amount of DNA per culture at day 15",rat hepatocytes [1],significant cell proliferation
fibronectin,"promotion of cell growth, total DNA per culture at day 15",rat hepatocytes [2],equally effective in promoting cell growth
"type I (bovine): bovine skin collagen type I, dry coating matrix substrate","promotion of cell growth, total DNA per culture at day 15",rat hepatocytes [2],equally effective in promoting cell growth
"HGF/SF: Hepatocyte growth factor, also known as scatter factor",phenotype of hepatocytes between two collagen gel layers,hepatocytes,multiple duct-shaped structures
same,"cell proliferation, total amount of DNA per culture at day 15",rat hepatocytes [1],significant cell proliferation
NC(=O)NO [Hydroxyurea],conversion of the proliferating hepatocytes to mature hepatocyte morphology,[3],entirely unaffected
same,formation of the ductular structures under inhibition of DNA synthesis,"hepatocytes; collagen gel sandwich, data not shown",did not affect the formation of the ductular structures
same,DNA synthesis,[4]; cultures in the presence of Matrigel,6.27 % of control (without hydroxyurea)
same,DNA synthesis,[4]; proliferating cultures in the absence of Matrigel,3.93 % of the control (without hydroxyurea)
same,DNA synthesis (inhibition down to),"[4]; collagen gel sandwich cultures, data not shown",5.1 % of control
EGF: epidermal growth factor,phenotype of hepatocytes between two collagen gel layers,hepatocytes,underwent the typical phenotypic transitions
same,"cell proliferation, total amount of DNA per culture at day 15",rat hepatocytes [1],significant cell proliferation
aFGF: acidic fibroblast growth factor,"cell proliferation, total amount of DNA per culture at day 15",rat hepatocytes [1],no proliferative effect
SCF: stem cell factor,"cell proliferation, total amount of DNA per culture at day 15",rat hepatocytes [1],no proliferative effect
"CCC1(c2ccccc2)C(=O)NC(=O)NC1=O [PB, Phenobarbitol]",levels of cytochrome P450 IIB1 mRNA,[5],induced cytochrome IIB1 mRNA only in the Matrigel-treated cultures
laminin,"promotion of cell growth, total DNA per culture at day 15",rat hepatocytes [2],equally effective in promoting cell growth
B1,"cell proliferation, total amount of DNA per culture at day 15",rat hepatocytes [1],no proliferative effect
